Experimental data taken from US20050101595A1, “N-containing cycloalkyl-substituted amino-thiazole derivatives and pharmaceutical compositions for inhibiting cell proliferation and methods for their use” (PFIZER INC., priority 2003, published 2005).
Where a name gives a salt, the structure may show the parent alone. Read-outs that look alike come from different tables or passages of the source.

Assays:
[1] = target: CDK2/Cyclin A (Homo sapiens, UniProt P24941); assay: Inhibition of CDK2/Cyclin A Retinoblastoma Kinase Activity; format: biochemical
In short: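 CDK2 (10 or 19 nM), insect-cell expressed, gel-filtration purified with truncated cyclin A; Rb fragment substrate; 25 μM ATP; 10 mM HEPES pH 7.4, 10 mM MgCl2; 30° C, 60 or 75 min; EDTA stop; phosphocellulose/nitrocellulose capture, phosphorimager. % inhibition vs DMSO control, no-enzyme background subtracted.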

[2] = target: human CDK4 and genetically truncated (1-264) cyclin D3 (Homo sapiens, UniProt P11802); assay: Inhibition of CDK4/Cyclin D Retinoblastoma Kinase Activity; format: biochemical
In short: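 The enzyme complex (5 nM), expressed in co-infected insect cells, was incubated with recombinant Rb fragment, 25 μM radiolabelled ATP and 2% DMSO at 30 °C. Reactions were stopped with EDTA after 20 minutes, or 60 minutes for tight-binding inhibitors. Apparent Ki values came from competitive inhibition fits.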

[3] = tested on: HCT-116 cell line; assay: Inhibition of cell growth, tetrazolium salt (MTT) assay; format: cell-based; settings: for HCT-116 % Inhibition at 0.25 μM: 0.25 μM compound; for IC50: Homo sapiens, HCT-116, 120 h, MTT, three to five days, read-out: HCT-116 IC50
In short: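 Growth inhibition is scored relative to cells receiving only 0.5% (v/v) DMSO. Plated cells rest 4 h, then take compound for three to five days at 37° C; MTT reduction to formazan is read at 540 nm.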

[4] = 0.1 μM compound, HCT-116, Table 3

human CDK4 and genetically truncated (1-264) cyclin D3, sequence (P11802 whole entry, the tested form may be a part): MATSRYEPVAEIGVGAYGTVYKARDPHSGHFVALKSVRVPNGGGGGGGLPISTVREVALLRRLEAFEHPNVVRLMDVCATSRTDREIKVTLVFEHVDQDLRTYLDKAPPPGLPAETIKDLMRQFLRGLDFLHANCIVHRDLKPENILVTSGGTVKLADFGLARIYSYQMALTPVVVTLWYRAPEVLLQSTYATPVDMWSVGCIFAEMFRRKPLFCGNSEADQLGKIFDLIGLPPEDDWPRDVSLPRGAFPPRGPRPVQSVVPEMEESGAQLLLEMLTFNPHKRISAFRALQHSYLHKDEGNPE
human CDK4 and genetically truncated (1-264) cyclin D3, sequence (P30281 1-264 partner): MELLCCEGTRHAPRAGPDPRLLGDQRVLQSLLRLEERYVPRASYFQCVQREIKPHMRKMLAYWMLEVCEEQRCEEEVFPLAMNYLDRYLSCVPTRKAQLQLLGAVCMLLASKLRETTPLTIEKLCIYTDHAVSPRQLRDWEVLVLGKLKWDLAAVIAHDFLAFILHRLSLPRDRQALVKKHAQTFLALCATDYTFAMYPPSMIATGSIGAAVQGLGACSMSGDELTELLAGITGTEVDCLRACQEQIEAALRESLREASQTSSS

| Structure (SMILES) | CDK2 % Inhibition at 0.03 μM ([1]; at 0.03 μM) [%] | CDK4 % Inhibition at 0.03 μM ([2]; at 0.03 μM) [%] | HCT-116 % Inhibition at 0.1 μM ([3]; HCT-116 cells, at 0.1 μM) [%] | HCT-116 5 Inhibition at 0.25 μM ([3]; HCT-116 cells) | further results |
| --- | --- | --- | --- | --- | --- |
| Nc1nc(NC2CCN(C(=O)C3(c4ccc(Cl)cc4)CC3)CC2)sc1C(=O)c1c(F)cccc1F [Example R91] | −1 | 14 | 2 | 41 |  |
| Nc1nc(NC2CCN(C(=O)c3ccccc3)CC2)sc1C(=O)c1c(F)cccc1F [Example R103] | 4 | 18 | 0 | 45 |  |
| Nc1nc(NC2CCN(C(=O)c3cccc4c3-c3ccccc3C4=O)CC2)sc1C(=O)c1c(F)cccc1F [Example Q74] |  |  |  |  | CDK2 % Inhibition at 0.03 μM ([1]; 0.03 μM compound, Table 4): 2%; CDK4 % Inhibition at 0.03 μM ([2]; 0.03 μM compound, Table 4): 19%; HCT-116 % Inhibition at 0.1 μM ([3]; 0.1 μM compound, HCT-116, Table 4): 3%; HCT-116 % Inhibition at 0.25 μM ([3]; HCT-116, Table 4): 35% |
| Nc1nc(NC2CCN(C(=O)c3c(F)ccc(F)c3F)CC2)sc1C(=O)c1c(F)cccc1F [Example R37] | 27 | 22 | 0 | 48 |  |
| CCc1ccc(S(=O)(=O)N2CCC(Nc3nc(N)c(C(=O)c4c(F)cccc4F)s3)CC2)cc1 [Example P30] |  |  |  |  | CDK2 % Inhibition at 0.03 μM ([1]; 0.03 μM compound, Table 3): 53%; CDK4 % Inhibition at 0.03 μM ([2]; 0.03 μM compound, Table 3): 61%; HCT-116 % Inhibition at 0.1 μM [3, 4]: 9%; HCT-116 % Inhibition at 0.25 μM ([3]; HCT-116, Table 3): 17% |
| Nc1nc(NC2CCN(S(=O)(=O)c3c(Cl)nc4sccn34)CC2)sc1C(=O)c1c(F)cccc1F [Example P79] |  |  |  |  | CDK2 % Inhibition at 0.03 μM ([1]; 0.03 μM compound, Table 3): 53%; CDK4 % Inhibition at 0.03 μM ([2]; 0.03 μM compound, Table 3): 44%; HCT-116 % Inhibition at 0.1 μM [3, 4]: 10%; HCT-116 % Inhibition at 0.25 μM ([3]; HCT-116, Table 3): 18% |
| Nc1nc(NC2CCN(S(=O)(=O)c3ccc(-c4ncc[nH]4)nc3)CC2)sc1C(=O)c1c(F)cccc1F [Example I1, 1-(4-Amino-2-{1-[6-(1H-imidazol-2-yl)-pyridine-3-sulfonyl]-piperidin-4-ylamino}-thiazol-5-yl)-1-(2,6-difluoro-phenyl)-methanone Hydrochloride] |  |  |  |  | Ki ([1]; apparent Ki, CDK2/proteolyzed cyclin A, Rb fragment substrate, 25 μM ATP): 0.26 nM; Ki ([2]; apparent Ki, CDK4/truncated cyclin D3, Rb fragment substrate, 25 μM ATP): 0.56 nM; IC50 ([3]; first HCT-116 column (c4)): 300 nM; IC50 ([3]; second HCT-116 column (c5)): 500 nM |
| COC(C(=O)N1CCC(Nc2nc(N)c(C(=O)c3c(F)cccc3F)s2)CC1)(c1ccccc1)C(F)(F)F (stereo not drawn) [Example R16] | −29 | 12 | 6 | 41 |  |
| Nc1nc(NC2CCN(C(=O)c3ccc(Cl)cc3)CC2)sc1C(=O)c1c(F)cccc1F [Example R144] | 20 | 46 | 0 | 38 |  |
| Cc1ccc(S(=O)(=O)NC(=O)N2CCC(Nc3nc(N)c(C(=O)c4c(F)cccc4F)s3)CC2)cc1 [Example O25] |  |  |  |  | CDK2 % Inhibition At 0.03 μM ([1]; 0.03 μM compound, Table 2): 31%; CDK4 % Inhibition at 0.03 μM ([2]; 0.03 μM compound, Table 2): 3%; HCT-116 % Inhibition at 0.25 μM ([3]; HCT-116, Table 2): 27% |
| CCCCC(C)C(=O)N1CCC(Nc2nc(N)c(C(=O)c3c(F)cccc3F)s2)CC1 (stereo not drawn) [Example R167] | −2 | 11 | 0 | 42 |  |
| CC(C)S(=O)(=O)N1CCC(Nc2nc(N)c(C(=O)c3c(F)cccc3F)s2)CC1 [Example P24] |  |  |  |  | CDK2 % Inhibition at 0.03 μM ([1]; 0.03 μM compound, Table 3): 5%; CDK4 % Inhibition at 0.03 μM ([2]; 0.03 μM compound, Table 3): 24%; HCT-116 % Inhibition at 0.1 μM [3, 4]: 26%; HCT-116 % Inhibition at 0.25 μM ([3]; HCT-116, Table 3): 36% |
| Cc1nn(-c2ccccc2)nc1C(=O)N1CCC(Nc2nc(N)c(C(=O)c3c(F)cccc3F)s2)CC1 [Example R24] | 20 | 49 | 5 | 39 |  |
